Patent publication US20240181087A1, “COMPOSITION FOR CONTRAST IMAGING OF CANCER” (ASTELLAS PHARMA INC., priority 2021, published 2024)

System: mouse tumor cell 4T1
Test: near-infrared fluorescence imaging after administration into tumor, 4T1 breast cancer model
Type: in vivo
Conditions: 4T1 tumor, 1 mg/mL saline, fluorescence imaging, incl. during tumor excision operation
Excerpt: A syngeneic tumor transplanted mouse model was created as follows referring to “Gan-Shikkan Model no Sakusei to Riyo (Cancer-Creation and Use of Disease Model)” (Takuro Nakamura, LIC, 2012). • (Breast Cancer) A tumor model was created by breeding a normal Balb/c mouse (weight: about 20 g to 30 g) for 14 days with mouse tumor cell 4T1 subcutaneously administered thereto. • (Colorectal Cancer) A tumor model was created by breeding a normal Balb/c mouse (weight: about 20 g to 30 g) for 14 days with CT26 (colorectal cancer cell) subcutaneously administered thereto. • (Skin Cancer) A tumor model was created by breeding a C57BL/6 mouse (weight: about 15 g to 20 g) for 14 days with B16F1 (skin cancer cell) subcutaneously administered thereto.
Subsequently, to the tumor of each of the model mice, 0.02 to 0.05 mL of a saline containing the compound III or ICG (concentration of the compound III or ICG: 1 mg/mL) was administered, and fluorescence imaging was performed transdermally with a near-infrared fluorescence camera (Fluobeam, manufactured by Fluoptics, http://www.solve-net.com/info/wp-content/uploads/downloads/2013/12/Fluobeam.pdf) (excitation wavelength: 780 nm, detection wavelength: 800 nm or more).

With `CC1(C)C(/C=C/C=C/C=C/C=C2\N(CCCCS(=O)(=O)O)c3ccc4ccccc4c3C2(C)C)=[N+](CCCCS(=O)(=O)[O-])c2ccc3ccccc3c21` [ICG, indocyanine green, reference compound] the “drawing of tumor outline / exudation to surrounding tissues” value was “fluorescence signals were emitted outside the tumor tissue, and the outline of the tumor could not be drawn”.
